Laboratory results as given in patent US9006185B2, “Use of cell-permeable peptide inhibitors of the JNK signal transduction pathway for the treatment of various diseases” (Xigen Inflammation Ltd., priority 2008, dated 2015).
Where two headings read alike, the source gives them in different places. Square brackets hold non-standard residues; d marks the D form. Ends that are not written are not given here.

Tests used:
gerbil = settings: transient global ischemia; cited from earlier work
[1] = system: primary embryonic cultures and differentiated PC12 cells; settings: after trophic withdrawal; cited from earlier work
[2] = system: chick embryonic dorsal root ganglion, sympathetic, ciliary and motor neurons; settings: cited from earlier work
TC-3 cells [3] = assay: Cellular import of fluorescein-labeled TAT and TAT-IB1(s) peptides; assay type: cell-based
Experimental: The ability of the L- and D-enantiomeric forms of TAT and TAT-IB1(s) peptides (“TAT-IB peptides”) to enter cells was evaluated. L-TAT, D-TAT, L-TAT-IB1(s), and D-TAT-IB1(s) peptides [SEQ ID NOs: 5, 6, 9 and 12, respectively] were labeled by N-terminal addition of a glycine residue conjugated to fluorescein. Labeled peptides (1 μM) were added to TC-3 cell cultures, which were maintained as described in Example 3. At predetermined times cells were washed with PBS and fixed for five minutes in ice-cold methanol-acetone (1:1) before being examined under a fluorescence microscope. Fluorescein-labeled BSA (1 μM, 12 moles/mole BSA) was used as a control.
Little to no signal was present at 48 hours.
Fluorescent signals from these all-D retro-inverso peptides were still very strong 1 week later, and the signal was only slightly diminished at 2 weeks post treatment.

JNK = settings: JBDs; cited from earlier work
TC-3 cells [4] = assay: IL-1 induced pancreatic beta-cell death, peptide treatment; assay type: cell-based; settings: one single addition 1 μM, two days of incubation with IL-1
Experimental: Inhibition of IL-1 induced pancreatic beta-cell death by the D-TAT-IB1(s) peptide was analyzed. TC-3 cells were incubated as described above for 30 minutes with one single addition of the indicated peptides (1, μM), then IL-1 (10 ng/ml) was added.
Apoptotic cells were then counted after two days of incubation with IL-1 by use of Propidium Iodide and Hoechst 33342 nuclear staining. A minimum of 1,000 cells were counted for each experiment. Standard Error of the Means (SEM) are indicated, n=5.
Long term inhibition of IL-1P induced cell-death by the D-TAT-IB1 peptide was also analyzed. TC-3 cells were incubated as above for 30 minutes with one single addition of the indicated peptides (1 μM), then IL-1 (10 ng/ml) was added, followed by addition of the cytokine every two days. Apoptotic cells were then counted after 15 days of incubation with IL-1 by use of propidium iodide and Hoechst 33342 nuclear staining. […] A minimum of 1.000 cells were counted for each experiment.

[5] = fluorescein labeled, 1 μM, TC-3 cells

N#CC(c1ccnc(NCCc2cccnc2)n1)c1nc2ccccc2s1 (centres unmarked) [AS601245]
delayed loss of hippocampal CA1 neurons (gerbil): significant protection against the delayed loss of hippocampal CA1 neurons

CCSCc1ccc2c(c1)c1c3c(c4c5cc(CSCC)ccc5n5c4c1n2[C@H]1C[C@](O)(C(=O)OC)[C@]5(C)O1)CNC3=O [CEP-1347]
neuronal survival [1]: promotes neuronal survival at dosages that inhibit activation of the c-Jun amino-terminal kinases | long term survival of cultured neurons [2]: promote long term-survival

RRRQRRKKRG (D-amino acids; Description of sequence Peptide D-TAT (see Table 1))
entry into cells (fluorescence microscopy) (TC-3 cells [3]): efficiently and rapidly (less than five minutes) entered cells | stability inside the cells (TC-3 cells [3]): extremely stable inside the cells

GRKKRRQRRRPPRPKRPTTLNLFPQVPRSQD [L-TAT-IB1(s)]
entry into cells (fluorescence microscopy) (TC-3 cells [3]; [5]): efficiently and rapidly (less than five minutes) entered cells

PGTGCGDTYRPKRPTTLNLFPQVPRSQDT (Description of sequence peptide IB1-long (see Table 1))
efficiency in binding JNK relative to c-Jun or ATF2 (JNK): approximately 100 fold

IPSPSVEEPHKHRPTTLRLTTLGAQDS (Description of sequence Peptide IB2-long (see Table 1))
efficiency in binding JNK relative to c-Jun or ATF2 (JNK): approximately 100 fold

Fluorescein-labeled BSA: fluorescein labeled bovine serum albumin, 12 moles fluorescein/mole BSA, control [reference compound]
entry into cells (fluorescence microscopy) (TC-3 cells [3]): did not enter the cells

TDQSRPVQPFLNLTTPRKPRYTDPPRRRQRRKKRG (H-[dT][dD][dQ][dS][dR][dP][dV][dQ][dP][dF][dL][dN][dL][dT][dT][dP][dR][dK][dP][dR][dY][dT][dD][dP][dP][dR][dR][dR][dQ][dR][dR][dK][dK][dR]G-OH) [D-TAT-IB1]
IL-1 induced apoptosis (TC-3 cells [4]): decreased IL-1 induced apoptosis to a similar extent as L-TAT-IB peptides

GRKKRRQRRR (Description of sequence Peptide L-TAT (see Table 1))
entry into cells (fluorescence microscopy) (TC-3 cells [3]; [5]): efficiently and rapidly (less than five minutes) entered cells
